Results from publication PMC12723449, “From Pharmacophore to Warhead: NAD^+‐Targeting Triazoles as Mechanism‐Based Sirtuin Inhibitors” (Angewandte Chemie (International Ed. in English), 2025).
“Also recorded” adds a separate entry of the source.

Legend:
[1] = target: T1, NanoLuc–SIRT2 fusion protein in HEK293T cells (Homo sapiens, UniProt Q8IXJ6); set-up: method as in PMID 35441145; conditions: read-out: NanoBRET EC50; cited from earlier work
T1 construct: transfected HEK293T cells expressing the NanoLuc-tagged SIRT250-356 fusion protein were used instead of transient; expressed in transfected cells; host or cells: HEK293T (stably transfected)
T1 sequence (Q8IXJ6 50-356 limits assumed): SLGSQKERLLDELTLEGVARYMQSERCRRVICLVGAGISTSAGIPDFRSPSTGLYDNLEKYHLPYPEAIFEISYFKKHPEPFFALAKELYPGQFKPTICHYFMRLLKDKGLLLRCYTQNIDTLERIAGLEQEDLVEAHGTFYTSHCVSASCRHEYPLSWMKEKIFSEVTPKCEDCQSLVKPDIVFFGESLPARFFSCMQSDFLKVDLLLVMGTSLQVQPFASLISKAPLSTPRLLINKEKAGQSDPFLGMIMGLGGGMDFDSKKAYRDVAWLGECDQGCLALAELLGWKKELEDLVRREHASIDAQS

[2] = target: T2, NanoLuc–SIRT2 fusion protein in HEK293T cells (Homo sapiens, UniProt Q8IXJ6); experiment: Kinetic NanoBRET washout assay (target residence time); format: cell-based; conditions: 25 µM (5 × EC50), 2 h preincubation, 2 h washout
T2 construct: HEK293T cells stably expressing the NanoLuc-SIRT250-364-fusion target protein were seeded into the coated plates; expressed in transfected cells; host or cells: HEK293T (stably expressing)
T2 sequence (Q8IXJ6 50-364 limits assumed): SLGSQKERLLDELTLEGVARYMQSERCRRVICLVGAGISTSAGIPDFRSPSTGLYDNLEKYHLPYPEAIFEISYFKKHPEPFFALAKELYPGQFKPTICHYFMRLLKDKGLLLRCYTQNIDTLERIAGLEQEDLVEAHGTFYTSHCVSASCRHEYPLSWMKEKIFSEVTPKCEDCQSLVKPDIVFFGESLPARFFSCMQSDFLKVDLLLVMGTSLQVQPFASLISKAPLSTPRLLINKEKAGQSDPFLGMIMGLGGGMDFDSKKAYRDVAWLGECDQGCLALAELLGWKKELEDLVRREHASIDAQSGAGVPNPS
Protocol: NanoBRET washout assay for determination of target residence time
A NanoBRET-based washout assay was used to assess the target residence time of inhibitors for SIRT2 in living cells. White, flat-bottom 96-well plates (PerkinElmer) were pre-coated with poly-L-lysine (Sigma-Aldrich) to enhance cell adherence. Briefly, each well was treated with poly-L-lysine solution for 5 min at room temperature, followed by removal of the coating solution and air-drying before seeding.
Cells were treated with the indicated inhibitor
After incubation, the inhibitor-containing medium was aspirated, and a washout procedure was performed to remove unbound inhibitor. Each well was washed twice by sequential addition and removal of 100 µL Opti-MEM (Thermo Fisher Scientific). Following the final wash, 90 µL Opti-MEM was added per well, followed by 100 µL of 2× Nano-Glo® substrate solution (Promega) and 10 µL of 20× SIRT2-Tracer solution.
BRET measurements were recorded kinetically using a Tecan Spark® plate reader equipped with donor (460 nm)
The BRET ratio was monitored over time to track the re-binding of the

In the case of `O=C(NCc1cccnc1)c1ccc2c(c1)C1C3CCC(C3)C1C(c1ccccc1)N2` (centres unmarked) [AEM2, reference compound], the EC50 [1] is listed as 5.2 ± 0.2 µM and the inhibition after washout [2] is listed as “completely lost activity; also recorded: fades with washout over 2 h”.
